These results are taken from PMC8878463, “Biological Activity and Stability of Aeruginosamides from Cyanobacteria” (Marine Drugs, 2022).

The nature of data set [1]: In vitro S9 stability assay (LC-MS/MS). The class given is in vitro ADME, human. The settings on record: for change of concentration in heat-denatured S9 fraction: heat-denatured (deactivated) S9 fraction; for change of concentration in heat-denatured S9 fraction / change of concentration in active S9 fraction: up to 60 min. The procedure: Human S9 liver fraction (catalogue no. HMS9PL, lot no. PL045-A) (protein content 20 mg mL^−1), containing a mixture of microsomal and cytosol enzymes, was used (Thermo Fisher Scientific, Waltham, MA USA) together with the following activating cofactors: NADPH (Alfa Aesar, Wart Hill, MA, USA), UDPGA (Merck KGaA; Darmstadt, Germany) and GSH (Merck, Darmstadt Germany). All cofactors (20 mM) and the analysed AEGs (3 µM) were prepared in 1% DMSO, the reaction was performed in a buffer (200 mM Tris (Merck KGaA, Darmstadt, Germany), 2 mM MgCl2 and 1M NaOH (Avantor Performance Materials Poland S.A., Gliwice, Poland); pH 7.4) 7-etoxycoumarine (7-EC; 3 µM in 20% DMSO) (Merck KGaA, Darmstadt, Germany) was used as a positive control. Tubes with 236 µL of buffer and 24 µL of S9 fraction were prepared in duplicates. Half of the samples was kept on ice, while the other half was deactivated by heating at 80 °C for 10 min and then cooled to room temperature. Cofactors were mixed (1:1:1) and 120 µL of the mixture, together with 20 µL of 7-EC were added to all samples. The aliquots (25 µL) of the samples were withdrawn at 0, 15, 30, 45, and 60 min, and 50 µL of an ice-cold ACN:MeOH (50:50) was added to stop the reaction. The samples were centrifuged (10,000× g, 4 °C, 10 min) and the supernatants were analysed by LC-MS/MS. The test was repeated twice. The elimination half-life was calculated as in Wen and Walle.
LC-MS/MS analyses were performed using an Agilent 1200 (Agilent Technologies, Waldboronn, Germany) chromatographic system coupled with a hybrid triple quadrupole/linear ion trap mass spectrometer (QTRAP5500, Applied Biosystems, Sciex, Concorde, ON, Canada) as a detector. AEGs were separated in a Zorbax Eclipse XDB-C18 column (4.61 mm × 150 mm; 5 µm) (Agilent Technologies, Santa Clara, CA, USA). The composition of the mobile phase was the same as in preparative chromatography. For analysis of the collected chromatographic fractions, the gradient changed from 15% B to 99% B over 20 min (flow rate 0.6 mL min^−1). The Turbo IonSource operated in positive ionisation mode at capillary voltage of 5.5 kV and source temperature of 550 °C. Cone gas pressure and desolvation gas pressure were 60 psi, declustering potential was 80 V, and collision energy was 60 ± 20 eV. Q3-information-dependent analysis (IDA) and enhanced product ion (EPI) modes were used. The IDA threshold was set at 500,000 cps, and the m/z range was 400–1000. The scan rate was 2000 amu s^−1, and the linear ion trap fill time 50 ms. For analysis of AEGs and 7-EC, the chromatographic gradient changed from 15% B to 25% B in 5 min, then to 99% B in the next 5 min (0.6 mL min^−1). MS operated in multiple reaction monitoring mode at collision energy CE 50 V and with the following transitions: 191 → 163, 119, 107 (q), 91 (for 7-EC); 561 → 222, 186, 86 (q) (for AEG A); 626 → 296, 136 (q), 70 (for AEG 625) and 658 → 296, 199 (q), 120 (for AEG 657). To determine the changes in AEGs concentrations, the peak areas of the most intensive ions (q) were measured.

The next data set concerns the target CYP2C9 (Homo sapiens, UniProt P11712). The experiment in a line: Vivid CYP450 screening kit, CYP2C9 Blue. The settings on record: for reduction of CYP2C9 activity: 60 µM, 60 min incubation.
The subject of data set [2] is MIR92b-3p in Huh7-pmirGLO-92b cells. Put plainly: Dual-luciferase reporter assay for inhibitors of MIR92b-3p function. The settings on record: 100 µM, 24 h. In kind it is cell-based, human. The procedure:
In this study, the reporter assays for small-molecule inhibitors of the MIR92b-3p function, previously designed to screen Nostoc peptides, were used. The screen employs a Huh7 human hepatoma cell line (Cell Lines Service GmbH, CLS; Eppelheim, Germany) stably transfected with a pmirGLO vector containing dual-luciferase reporters. Briefly, for the chemical screening of AEGs, Huh7-pmirGLO-MIR92b-3p cells were seeded at 10,000 cells per well in white, 96-well plates (Thermo Fisher Scientific, Waltham, MA, USA). After overnight incubation, the medium was removed and replaced with 100 μL of RPMI1640 (Merck, KGaA, Darmstadt, Germany), supplemented with increasing concentrations of AEGs, ranging from 10 nM to 100 μM, with three replicates at each concentration. Cells were incubated for 24 h and then analysed with a dual-luciferase Reporter Assay Kit (Promega, Madison, WI, USA). Relative luciferase activity was calculated using the ratio of firefly (F) and Renilla (R) luciferase activity (F/R).

The subject of a further data set is Huh7 cells. The experiment in a line: CellTiter-Glo cell viability assay. The class given is cell-based, human. The settings on record: 24 h; for effect on Huh7 cell viability: 10 nM to 100 µM; for mean luciferase expression (relative luminescence), cell viability: normalized to untreated cells. The procedure: (§1) To determine cell viability and ROS level, Huh7 cells were seeded at 10,000 cells per well in white 96-well plates. After overnight incubation, the medium was removed and replaced with 100 μL of RPMI1640 supplemented with increasing concentrations of AEGs ranging from 10 nM to 100 μM (cell viability) or ranging from 1 µM to 100 μM (ROS), with three replicates at each concentration. After incubation for 24 h, cells viability was examined using a Cell Titer-Glo Luminescent Cell Viability Assay (Promega, Madison, WI, USA) and ROS was measured using a ROS-Glo H2O2 Assay (Promega, Madison, WI, USA).
In general terms: In ATP-based viability assays light output follows the ATP content of the culture.

The target in a further data set is T1, CYP3A4 (Homo sapiens, UniProt P08684).
T1 construct: purchased Thermo Fisher Scientific P2857; host or cells: baculovirus expression system (insect cell microsomes)
Put plainly: Vivid CYP450 screening kit, CYP3A4 Blue. The settings on record: for effect on CYP3A4 activity: up to 60 µM. The class given is biochemical.

Another data set has as its target CYP2D6 (Homo sapiens, UniProt P10635). The experiment in a line: Vivid CYP450 screening kit, CYP2D6 Blue.
In data set [3] the test system is human breast adenocarcinoma cell line T47D. The experiment in a line: MTT cytotoxicity assay. In kind it is cell-based. The settings on record: 40 µM, 24 h. The procedure: MTT (3-(4,5-dimethylthiazol-2-yl)-2,5-diphenyltetrazolium-bromide) assay was performed according to Felczykowska et al.. Briefly, cytotoxicity assessment was conducted against human breast adenocarcinoma cell line T47D obtained from the European Collection of Authenticated Cell Cultures (ECACC) through Merck KGaA (Darmstadt, Germany). Cells were cultured in 96-well plates using RPMI1640 medium (Carl Roth GmbH, Karlsruhe, Germany) supplemented with a fetal bovine serum (10% v/v; Sigma-Aldrich by Merck KGaA, Darmstadt, Germany) and penicillin-streptomycin solution (1% v/v, stock solution 50 u and 0.05 mg mL^−1, respectively; Merck KGaA, Darmstadt, Germany) at 1 × 10^4 cells per well and incubated for 24 h. After the addition of the tested compounds (40, 80, 160 and 320 µM) dissolved in 1% DMSO, samples were incubated for another 24 h. Then, MTT reagent was added (25 µL at 4 mg mL^−1 in PBS; Merck KGaA; Darmstadt, Germany) and the samples were incubated for 4 h. Lastly, formazan crystals were dissolved in 100% DMSO and absorbance was measured using a microplate reader (Spectramax i3, Molecular Devices, LLC San Jose, CA, USA). Cell viability was calculated as the ratio of the mean absorbance value measured in two independent assays, for the three replicates containing the samples, to the mean absorbance of the three replicates of the corresponding solvent control and expressed as a percentage.

Data set [4] deals with ROS (reactive oxygen species) levels in Huh7 cells. Put plainly: ROS-Glo H2O2 assay. In kind it is cell-based, human. The settings on record: 1 µM to 100 µM, 24 h, concentration-dependent. The procedure: as §1
For data set [5], the system named is K562 human leukaemia cells. On the set-up: method as in PMID 34237867. The settings on record: previous study; read-out: IC50 cytotoxic activity, K562; cited from earlier work.
The subject of data set [6] is A2780 human ovarian tumour cells. Also noted: method as in PMID 34237867. The settings on record: previous study; read-out: IC50 cytotoxic activity, A2780; cited from earlier work.
The mark [7] stands for this setting: active S9 fraction, 60 min, 3 µM.
The mark [8] stands for this setting: human, recombinant CYP2D6 (CYP450 BACULOSOMES Plus Reagent), probe Vivid CYP2D6 Blue substrate.

Chain of CYP2C9 (P11712 whole entry): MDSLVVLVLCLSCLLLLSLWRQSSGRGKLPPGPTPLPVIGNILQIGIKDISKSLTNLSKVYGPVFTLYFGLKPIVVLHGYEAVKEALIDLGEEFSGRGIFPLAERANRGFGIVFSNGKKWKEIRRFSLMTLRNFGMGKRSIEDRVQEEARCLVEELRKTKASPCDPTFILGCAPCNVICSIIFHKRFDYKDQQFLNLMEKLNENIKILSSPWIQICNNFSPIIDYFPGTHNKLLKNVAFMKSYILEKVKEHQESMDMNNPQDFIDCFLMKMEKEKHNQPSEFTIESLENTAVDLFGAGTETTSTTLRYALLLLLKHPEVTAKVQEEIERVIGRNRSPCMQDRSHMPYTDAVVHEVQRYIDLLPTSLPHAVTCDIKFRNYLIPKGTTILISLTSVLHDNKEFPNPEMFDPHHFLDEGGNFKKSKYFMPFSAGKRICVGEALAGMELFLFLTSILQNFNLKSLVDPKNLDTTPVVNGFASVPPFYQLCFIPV
T1 sequence (P08684 2-503 limits assumed): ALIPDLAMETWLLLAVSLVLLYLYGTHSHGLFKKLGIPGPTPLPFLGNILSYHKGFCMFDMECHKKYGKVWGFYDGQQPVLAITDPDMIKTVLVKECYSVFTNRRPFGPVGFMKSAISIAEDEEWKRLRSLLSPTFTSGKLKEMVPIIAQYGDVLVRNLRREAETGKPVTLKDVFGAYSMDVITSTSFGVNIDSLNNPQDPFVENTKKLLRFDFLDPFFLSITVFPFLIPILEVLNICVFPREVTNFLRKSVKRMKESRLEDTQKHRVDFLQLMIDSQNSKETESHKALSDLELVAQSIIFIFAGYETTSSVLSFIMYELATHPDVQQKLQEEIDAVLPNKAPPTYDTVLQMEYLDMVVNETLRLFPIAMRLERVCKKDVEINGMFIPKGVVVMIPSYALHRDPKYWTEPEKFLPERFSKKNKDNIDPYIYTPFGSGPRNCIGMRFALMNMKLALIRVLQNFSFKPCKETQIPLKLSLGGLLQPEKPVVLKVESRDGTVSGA
Chain of CYP2D6 (P10635 whole entry): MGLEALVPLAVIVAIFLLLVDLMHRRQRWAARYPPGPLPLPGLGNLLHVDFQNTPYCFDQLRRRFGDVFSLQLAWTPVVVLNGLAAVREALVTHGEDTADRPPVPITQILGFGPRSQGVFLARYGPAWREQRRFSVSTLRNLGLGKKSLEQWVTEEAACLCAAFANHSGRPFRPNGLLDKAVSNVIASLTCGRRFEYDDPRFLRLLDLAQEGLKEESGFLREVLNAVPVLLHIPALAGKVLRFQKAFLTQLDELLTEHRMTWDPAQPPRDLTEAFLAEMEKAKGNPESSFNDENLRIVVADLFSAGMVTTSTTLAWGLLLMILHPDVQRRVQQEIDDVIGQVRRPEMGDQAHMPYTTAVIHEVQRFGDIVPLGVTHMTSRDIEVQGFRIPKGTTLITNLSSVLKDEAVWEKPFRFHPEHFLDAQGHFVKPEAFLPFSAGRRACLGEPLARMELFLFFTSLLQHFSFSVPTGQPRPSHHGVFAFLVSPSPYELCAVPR
Protocol for CYP2C9: (§2) The following commercially available Vivid® CYP450 Screening Kits were performed according to the instruction supplied by the manufacturer (Thermo Fisher Scientific, Waltham, MA, USA): Vivid® CYP2C9 Blue (cat. no. P2861), Vivid® CYP2D6 Blue (cat. no. P2972) and Vivid® CYP3A4 Blue (cat. no. P2857). […] After adjustment to room temperature, the Vivid substrate was dissolved in anhydrous acetonitrile (10 µM), and the fluorescence standard was dissolved in DMSO (100 µM). The test compounds and inhibitors were diluted with the Vivid® CYP450 reaction buffer. […] In the subsequent steps, 5 µL solutions of test compounds, inhibitors and solvent were added to the wells. Then, 5 µL of Master Pre-Mix (mixture of Reagent, Regeneration System and the Reaction Buffer) was dispensed to each well. After 10 min incubation at room temperature, the reaction was started by the addition of 5 µL of a mixture composed of Vivid® Substrate and NADP^+. Tests were performed in endpoint mode using 384-well plates. […] The test was performed with three replicates at each concentration.
Protocol for CYP2D6: as §2
Protocol for CYP3A4: The following commercially available Vivid® CYP450 Screening Kits were performed according to the instruction supplied by the manufacturer (Thermo Fisher Scientific, Waltham, MA, USA): Vivid® CYP2C9 Blue (cat. no. P2861), Vivid® CYP2D6 Blue (cat. no. P2972) and Vivid® CYP3A4 Blue (cat. no. P2857). The CYP450 BACULOSOMES Plus Reagent (with the recombinant human cytochrome P450 and human cytochrome 450 reductases), Vivid Regeneration System (333 mM glucose-6-phosphate and 30 U mL^−1 glucose-6-phosphate dehydrogenase in 100 mM K3PO4, pH 8.0), and Vivid NADP^+ (10 mM NADP^+ in 100 mM K3PO4, pH 8.0) were thawed at room temperature and kept on ice until use. After adjustment to room temperature, the Vivid substrate was dissolved in anhydrous acetonitrile (10 µM), and the fluorescence standard was dissolved in DMSO (100 µM). The test compounds and inhibitors were diluted with the Vivid® CYP450 reaction buffer. […] In the subsequent steps, 5 µL solutions of test compounds, inhibitors and solvent were added to the wells. Then, 5 µL of Master Pre-Mix (mixture of Reagent, Regeneration System and the Reaction Buffer) was dispensed to each well. After 10 min incubation at room temperature, the reaction was started by the addition of 5 µL of a mixture composed of Vivid® Substrate and NADP^+. Tests were performed in endpoint mode using 384-well plates. Excitation wavelength was 415 nm and emission was measured at 460 nm, at the start of the test and after 60 min. The test was performed with three replicates at each concentration.

For the compound `CCOc1ccc2ccc(=O)oc2c1` [7-EC, 7-etoxycoumarin, reference compound], in data set [1] (active S9 fraction with NADPH, UDPGA, GSH), the “elimination half-life t1/2” value is listed as 38.7 min. The “concentration remaining, % of initial value” in data set [1] (setting [7]) is reported as 28.6%. In [1], the “change of concentration in heat-denatured S9 fraction” value is “no changes were observed”.

On to `C=CC(C)(C)NC(Cc1ccc(O)cc1)C(=O)NC(C(=O)N1CCCC1C(=O)N1CCCC1c1nc(C(=O)O)cs1)C(C)C` (stereo not drawn) [AEG625], for which the “reduction of CYP2C9 activity” value on CYP2C9 amounted to 43.9%. In addition, in data set [2], the “luciferase signal intensity (MIR92b-3p reporter)” value was “slight increase in signal intensity”. Besides, the “effect on Huh7 cell viability” value in the data set on Huh7 cells was “no apparent effect”. The figures for the “mean luciferase expression (relative luminescence), cell viability” value in the data set on Huh7 cells (50 µM) and in the data set on Huh7 cells (100 µM) were 0.73 (SD = 0.47) and 0.70 (SD = 0.27), respectively. The “effect on CYP3A4 activity” value at CYP3A4 is “No significant loss of CYP3A4 activity”. The “effect on CYP2D6 activity” value on CYP2D6 (up to 60 µM) is given as “did not induce any effects”. Also, the “inhibition of T47D viability” value in data set [3] was determined as 48%. Also, the “change of concentration in active S9 fraction” value in [1] (active S9 fraction) is on record as “neither changes in the active nor in the deactivated fraction were detected”. In addition, the “change of concentration in heat-denatured S9 fraction” value in data set [1] is recorded as “neither changes in the active nor in the deactivated fraction were detected”. For the same compound, in data set [4], the “change of ROS levels in Huh7 cells” value is given as “twofold”.

Take `C=CC(C)(C)NC(Cc1ccccc1)C(=O)NC(Cc1ccccc1)C(=O)N1CCCC1C(=O)N1CCCC1c1nc(C(=O)O)cs1` (stereo not drawn) [AEG657]: the “reduction of CYP2C9 activity” value on CYP2C9 is reported as 40.7%. Also, the “effect on Huh7 cell viability” value with Huh7 cells was “lack of significant effects”. Besides, at CYP3A4 (60 µM), the “CYP3A4 activity lower than in the control” value is on record as “approx. 18%”. Also, at CYP2D6 (setting [8]), the inhibition – broadly, the change of the read-out against control, counted positive when it falls – at 60 min, 60 µM was found to be 33.2%. Also, in data set [3], the “inhibition of T47D viability” value is recorded as 63%. For the same compound, the “change of concentration in active S9 fraction” value in data set [1] (active S9 fraction) was “neither changes in the active nor in the deactivated fraction were detected”. The “change of concentration in heat-denatured S9 fraction” value in data set [1] is “neither changes in the active nor in the deactivated fraction were detected”.

On to `CCC(C)C(C(=O)NC(C(=O)N1CCCC1c1nc(C(=O)O)cs1)C(C)C)N(CC=C(C)C)CC=C(C)C` (stereo not drawn) [AEG A], for which the IC50 – broadly, the concentration that inhibits the measured activity by half – was 5.2 µM in [5], 2900 nM in [6] and 5.7 µM against CYP3A4 (60 min incubation). Further, on CYP2C9, the “reduction of CYP2C9 activity” value came to 28.7%. Also, the “effect on Huh7 cell viability” value in the data set on Huh7 cells was “did not affect either of the two cancer cell lines”. In addition, the “effect on CYP3A4 activity” value at CYP3A4 is reported as “active against CYP3A4, but only at the two highest concentrations”. For the same compound, the “remaining CYP2D6 activity (reduced to)” value is recorded as 78.4% at CYP2D6 (6 µM) and 60.4% on CYP2D6 (60 µM). In addition, the concentration for half-maximal inhibition (IC50) at 60 min on CYP2D6 (setting [8]) was found to be 8.6 µM. Moreover, the “inhibition of T47D viability” value in [3] was “no effects were observed”. The “concentration remaining, % of initial value” was determined as 2.9% in data set [1] (active S9 fraction, 15 min, 3 µM); 0.4% in data set [1] (setting [7]); 56.0% in data set [1] (heat-denatured S9 fraction, 15 min); 46.0% in data set [1] (heat-denatured S9 fraction, 60 min). Also, in data set [1] (human, liver S9 fraction (active), pH 7.4, active S9 fraction with NADPH, UDPGA, GSH, read-out: elimination half-life t1/2), the half-life at 3 µM was found to be 2.48 min.

Consider `C=C[C@H]1C[N@@]2CC[C@H]1C[C@@H]2[C@@H](O)c1ccnc2ccc(OC)cc12` [Quinidine, reference compound], for which, on CYP2D6 (human), the inhibition at 60 min, 60 µM came to 96.2%.

On to `Nc1ccc(S(=O)(=O)Nc2ccnn2-c2ccccc2)cc1` [sulfaphenazole, reference compound], for which the “reduction of CYP2C9 activity” value at CYP2C9 was 44.9%. The 50% inhibitory concentration (IC50) at 60 min at CYP2C9 (human) stood at 6.1 µM.
